# Experimental data as given in PubChem BioAssay AID1963420 (Molecular Pharmacology Branch, DTP, NCI, 2024).
# pIC50: −log10 of the molar value.
# System: 494315-158-R-J1-PDC complex spheroid growth, percent test/control
# Test: Anticancer human tumor 494315-158-R-J1-PDC patient-derived soft tissue sarcoma cell line growth inhibition [Asc]
# Details: for pIC50: curve of first compound; for viability, T/C: stronger effect = lower value
# Experimental: Multicellular complex tumor spheroid response to apoptosis pathway targeting inhibitors Alrizomadlin, Pelcitoclax, and Dasminapant in combination with a variety of drugs and investigational agents in selected tumor cell lines
# The MDM2 inhibitor alrizomadlin, the Bcl-2/Bcl-xL inhibitor pelcitoclax, and the IAPs inhibitor dasminapant were evaluated both individually and in combination with standard of care and investigational anticancer small molecules within a complex spheroid model of solid tumors. . Complex spheroids include a stromal component modeled by human endothelial cells (HUVEC) and fibroblasts modeled by human mesenchymal stem cells (MSCs). The concentration ranges selected for each drug and investigational agent were based upon clinically achievable concentrations if the clinical Cmax of the agent was known.
# Compounds. The drugs and investigational agents: alrizomadlin (APG-115; NSC831270), pelcitoclax (APG-1252; NSC835773), dasminapant (APG-1387;NSC834197), TAK-243 (NSC785004), copanlisib (NSC809693), olaparib (NSC753686), talazoparib (NSC767125), cobimetinib (NSC 768068), eltanexor (KPT-8602, NSC 794443), abemaciclib (NSC 768073), sotorasib (NSC818433), adagrasib (NSC 831453), MRTX-1133 (NSC 836407), Iadademestat (ORY1001, NSC 806812), and RMC-4630 (NSC839698), were obtained from the NCI Developmental Therapeutics Program Chemical Repository. The FDA-approved anticancer drug set is available from the Developmental Therapeutics Program at https://dtp.cancer.gov/organization/dscb/obtaining/available plates.htm. […] The stock solutions were prepared in dimethyl sulfoxide (DMSO, Sigma-Aldrich, St. Louis, MO, cat. D2650) at 800-fold the tested concentration and stored at -70 degrees C prior to their use. All drugs and investigational agents were tested over a range starting from a high concentration at or near the clinical Cmax and decreasing in half-log increments. If the clinical Cmax for an agent had not been determined, the highest concentration tested was 10 microM.
# The patient-derived cancer (PDC) cell lines include five colon adenocarcinomas: 186277-243-T-J2-PDC, 616215-338-R-J1-PDC, 439559-082-T-J2-PDC, 463943-066-T-J2-PDC, and 519858-162-T-J1-PDC; three pancreatic carcinomas: 323965-272-R-J2-PDC, 521955-158-R6-J3-PDC, and 521955-158-R2-J5-PDC; two uterine sarcomas: 327498-152-R-J2-PDC and 993429-296-R-J1-PDC; two rhabdomyosarcomas: 755483-174-R-J1-PDC and 772245-204-R-J1-PDC; two soft tissue sarcomas: 126254-015-R-J1-PDC and 494315-158-R-J1-PDC; two malignant fibrous histiocytomas: 317291-083-R-J1-PDC and 596521-263-R-J1-PDC; two breast carcinomas: 171881-019-R-J1-PDC and 885512-296-R-J2-PDC; and one ovarian carcinoma: 6556581-035-R-J-PDC were obtained from the NCI PDMR, (https://pdmr.cancer.gov). The established cell lines HSSY-2 synovial sarcoma (RRID:CVCL 8719), SYO-1 synovial sarcoma (RRID:CVCL_7146), MPNST malignant peripheral neural sheath tumor were obtained from the Sloan Kettering Institute. The following established cell lines were purchased from the American Type Culture Collection (ATCC, Manassas, VA), Sor the received from the NCI repository:, PANC-1 pancreatic carcinoma (CRL-1469, RRID:CVCL_0480), OVCAR-5 ovarian carcinoma (RRID:CVCL_1628), OVCAR-8 ovarian carcinoma (RRID:CVCL_1629), , MCF-7 breast carcinoma (CRL-12584, RRID:CVCL_0031), MDA-MB-231 breast carcinoma (CRL-12532, RRID:CVCL_0062), NCI-H1876 small cell lung carcinoma (CRL-5902, RRID:CVCL_1503), NCI-H510A small cell lung carcinoma (HTB-184, RRID:CVCL_1565), NCI-H1417 (CRL-5869, RRID:CVCL_1469), and NCI-H196 small cell lung carcinoma (CRL-5823, RRID:CVCL_1509). Dr. Peter Houghton (Greehey Children's Cancer Research Institute, University of Texas Health Science Center, San Antonio, TX) provided Rh-18 rhabdomyosarcoma (RRID:CVCL_1659). Pooled donor human umbilical vein endothelial cells (HUVEC, Lonza, cat. CC-2519) and human mesenchymal stem cells (hMSC, Lonza, cat. PT-2501) were purchased from Lonza (Walkersville, MD).
# Cell Culture. […]
# [1] = second compound 0.01 µM, first compound 0.0316 µM
# [2] = second compound 0.01 µM, first compound 0.1 µM
# [3] = second compound 0.01 µM, first compound 0.316 µM
# [4] = second compound 0.01 µM, first compound 1 µM
# [5] = second compound 0.01 µM, first compound 3.16 µM
# [6] = second compound 0.01 µM, first compound 10 µM
# [7] = second compound 0.0316 µM, first compound 0.0316 µM
# [8] = second compound 0.0316 µM, first compound 0.1 µM
# [9] = second compound 0.0316 µM, first compound 0.316 µM
# [10] = second compound 0.0316 µM, first compound 1 µM
# [11] = second compound 0.0316 µM, first compound 3.16 µM
# [12] = second compound 0.0316 µM, first compound 10 µM
# [13] = second compound 0.1 µM, first compound 0.0316 µM
# [14] = second compound 0.1 µM, first compound 0.1 µM
# [15] = second compound 0.1 µM, first compound 0.316 µM
# [16] = second compound 0.1 µM, first compound 1 µM
# [17] = second compound 0.1 µM, first compound 3.16 µM
# [18] = second compound 0.1 µM, first compound 10 µM
# [19] = second compound 0.316 µM, first compound 0.0316 µM
# [20] = second compound 0.316 µM, first compound 0.1 µM
# [21] = second compound 0.316 µM, first compound 0.316 µM
# [22] = second compound 0.316 µM, first compound 1 µM
# [23] = second compound 0.316 µM, first compound 3.16 µM
# [24] = second compound 0.316 µM, first compound 10 µM
# [25] = second compound 1 µM, first compound 0.0316 µM
# [26] = second compound 1 µM, first compound 0.1 µM
# [27] = second compound 1 µM, first compound 0.316 µM
# [28] = second compound 1 µM, first compound 1 µM
# [29] = second compound 1 µM, first compound 3.16 µM
# [30] = second compound 1 µM, first compound 10 µM
# 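Also: compound exposure lasted seven days after spheroids formed for three days.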
compound,measurement,setting,value
C=C(F)C(=O)N1CCN(c2nc(OCC3CCCN3C)nc3c2CCN(c2cccc4cccc(Cl)c24)C3)CC1CC#N (stereo not given) + CCN1C(C(=O)NC23CCC(C(=O)O)(CC2)CC3)C(c2cccc(Cl)c2F)C2(C(=O)Nc3cc(Cl)ccc32)C12CCCCC2,pIC50,second compound 0.03 µM,5.38
same,pIC50,second compound 0.0949 µM,5.50
same,pIC50,second compound 0.3 µM,5.42
same,pIC50,second compound 0.949 µM,5.38
same,pIC50,second compound 3 µM,5.39
same,"viability, T/C","second compound 0.03 µM, first compound 0.0316 µM",106%
same,"viability, T/C","second compound 0.03 µM, first compound 0.1 µM",103%
same,"viability, T/C","second compound 0.03 µM, first compound 0.316 µM",105%
same,"viability, T/C","second compound 0.03 µM, first compound 1 µM",118%
same,"viability, T/C","second compound 0.03 µM, first compound 3.16 µM",66%
same,"viability, T/C","second compound 0.03 µM, first compound 10 µM",0.19%
same,"viability, T/C","second compound 0.0949 µM, first compound 0.0316 µM",99.9%
same,"viability, T/C","second compound 0.0949 µM, first compound 0.1 µM",101%
same,"viability, T/C","second compound 0.0949 µM, first compound 0.316 µM",93.2%
same,"viability, T/C","second compound 0.0949 µM, first compound 1 µM",95.2%
same,"viability, T/C","second compound 0.0949 µM, first compound 3.16 µM",50.2%
same,"viability, T/C","second compound 0.0949 µM, first compound 10 µM",0.16%
same,"viability, T/C","second compound 0.3 µM, first compound 0.0316 µM",110%
same,"viability, T/C","second compound 0.3 µM, first compound 0.1 µM",93%
same,"viability, T/C","second compound 0.3 µM, first compound 0.316 µM",80.3%
same,"viability, T/C","second compound 0.3 µM, first compound 1 µM",111%
same,"viability, T/C","second compound 0.3 µM, first compound 3.16 µM",59.5%
same,"viability, T/C","second compound 0.3 µM, first compound 10 µM",0.19%
same,"viability, T/C","second compound 0.949 µM, first compound 0.0316 µM",87.1%
same,"viability, T/C","second compound 0.949 µM, first compound 0.1 µM",109%
same,"viability, T/C","second compound 0.949 µM, first compound 0.316 µM",95.9%
same,"viability, T/C","second compound 0.949 µM, first compound 1 µM",76.7%
same,"viability, T/C","second compound 0.949 µM, first compound 3.16 µM",70%
same,"viability, T/C","second compound 0.949 µM, first compound 10 µM",0.2%
same,"viability, T/C","second compound 3 µM, first compound 0.0316 µM",96.7%
same,"viability, T/C","second compound 3 µM, first compound 0.1 µM",102%
same,"viability, T/C","second compound 3 µM, first compound 0.316 µM",100%
same,"viability, T/C","second compound 3 µM, first compound 1 µM",87.2%
same,"viability, T/C","second compound 3 µM, first compound 3.16 µM",65.6%
same,"viability, T/C","second compound 3 µM, first compound 10 µM",0.27%
C=CC(=O)N1CCN(c2nc(=O)n(-c3c(C)ccnc3C(C)C)c3nc(-c4c(O)cccc4F)c(F)cc23)C(C)C1 (stereo not given) + CNC(C)C(=O)NC1CN(S(=O)(=O)c2cccc(S(=O)(=O)N3CCC4CCC(C(=O)NC(c5ccccc5)c5ccccc5)N4C(=O)C(NC(=O)C(C)NC)C3)c2)CCC2CCC(C(=O)NC(c3ccccc3)c3ccccc3)N2C1=O,pIC50,second compound 0.01 µM,< 5.00
same,pIC50,second compound 0.0316 µM,< 5.00
same,pIC50,second compound 0.1 µM,< 5.00
same,pIC50,second compound 0.316 µM,> 7.50
same,pIC50,second compound 1 µM,> 7.50
same,"viability, T/C",[1],72.5%
same,"viability, T/C",[2],70.5%
same,"viability, T/C",[3],74.1%
same,"viability, T/C",[4],69.5%
same,"viability, T/C",[5],78.4%
same,"viability, T/C",[6],57.8%
same,"viability, T/C",[7],58.2%
same,"viability, T/C",[8],60.8%
same,"viability, T/C",[9],57.6%
same,"viability, T/C",[10],73.5%
same,"viability, T/C",[11],59.5%
same,"viability, T/C",[12],45.2%
same,"viability, T/C",[13],53.2%
same,"viability, T/C",[14],54%
same,"viability, T/C",[15],62.1%
same,"viability, T/C",[16],55.4%
same,"viability, T/C",[17],60.3%
same,"viability, T/C",[18],42.5%
same,"viability, T/C",[19],49%
same,"viability, T/C",[20],50.1%
same,"viability, T/C",[21],46.2%
same,"viability, T/C",[22],45.8%
same,"viability, T/C",[23],51.5%
same,"viability, T/C",[24],42.2%
same,"viability, T/C",[25],45.2%
same,"viability, T/C",[26],49.7%
same,"viability, T/C",[27],44.9%
same,"viability, T/C",[28],35.3%
same,"viability, T/C",[29],38.8%
same,"viability, T/C",[30],40.9%
C=C(F)C(=O)N1CCN(c2nc(OCC3CCCN3C)nc3c2CCN(c2cccc4cccc(Cl)c24)C3)CC1CC#N (stereo not given) + CNC(C)C(=O)NC1CN(S(=O)(=O)c2cccc(S(=O)(=O)N3CCC4CCC(C(=O)NC(c5ccccc5)c5ccccc5)N4C(=O)C(NC(=O)C(C)NC)C3)c2)CCC2CCC(C(=O)NC(c3ccccc3)c3ccccc3)N2C1=O,pIC50,second compound 0.01 µM,5.81
same,pIC50,second compound 0.0316 µM,6.29
same,pIC50,second compound 0.1 µM,5.99
same,pIC50,second compound 0.316 µM,> 7.50
same,pIC50,second compound 1 µM,> 7.50
same,"viability, T/C",[1],68.7%
same,"viability, T/C",[2],70.6%
same,"viability, T/C",[3],61.5%
same,"viability, T/C",[4],62.9%
same,"viability, T/C",[5],30.8%
same,"viability, T/C",[6],0.15%
same,"viability, T/C",[7],51.8%
same,"viability, T/C",[8],56.5%
same,"viability, T/C",[9],46.2%
same,"viability, T/C",[10],48.5%
same,"viability, T/C",[11],20.6%
same,"viability, T/C",[12],0.13%
same,"viability, T/C",[13],50.7%
same,"viability, T/C",[14],48%
same,"viability, T/C",[15],52.3%
same,"viability, T/C",[16],51.7%
same,"viability, T/C",[17],18.9%
same,"viability, T/C",[18],0.11%
same,"viability, T/C",[19],44.9%
same,"viability, T/C",[20],43.4%
same,"viability, T/C",[21],38.8%
same,"viability, T/C",[22],45.7%
same,"viability, T/C",[23],12.8%
same,"viability, T/C",[24],0.11%
same,"viability, T/C",[25],34.3%
same,"viability, T/C",[26],39.9%
same,"viability, T/C",[27],36.7%
same,"viability, T/C",[28],39.8%
same,"viability, T/C",[29],8.22%
same,"viability, T/C",[30],0.18%
